From article PMC11335392, “Characterization of an Estrogen Receptor α-Selective ^18 F-Estradiol PET Tracer” (World Journal of Nuclear Medicine, 2024)

Molecular target: T1, estrogen receptor α (ERα) (Homo sapiens, UniProt P03372)
T1 construct: gene ESR1; full-length human ESR1 (ERα), transiently expressed in HEK293T cells
T1 sequence (P03372 1-595): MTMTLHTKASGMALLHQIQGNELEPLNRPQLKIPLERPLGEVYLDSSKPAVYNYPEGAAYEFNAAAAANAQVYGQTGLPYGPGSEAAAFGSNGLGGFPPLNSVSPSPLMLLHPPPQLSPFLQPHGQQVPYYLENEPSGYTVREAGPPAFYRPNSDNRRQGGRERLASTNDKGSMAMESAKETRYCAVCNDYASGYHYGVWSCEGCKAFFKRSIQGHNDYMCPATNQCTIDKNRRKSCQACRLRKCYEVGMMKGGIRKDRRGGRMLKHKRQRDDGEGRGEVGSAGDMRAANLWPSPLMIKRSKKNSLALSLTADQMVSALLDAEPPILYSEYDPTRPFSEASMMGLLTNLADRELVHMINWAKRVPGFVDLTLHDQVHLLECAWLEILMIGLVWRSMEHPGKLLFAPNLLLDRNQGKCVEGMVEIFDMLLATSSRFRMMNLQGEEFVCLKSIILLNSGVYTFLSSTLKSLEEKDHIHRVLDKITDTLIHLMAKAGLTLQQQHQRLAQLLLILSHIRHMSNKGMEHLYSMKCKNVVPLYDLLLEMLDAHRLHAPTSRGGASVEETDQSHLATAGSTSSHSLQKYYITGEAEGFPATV
Assay: radioligand saturation binding with Scatchard analysis in ERα-transfected HEK293T cells
Format: cell-based

- Kd: 94 nM
SMILES: C[C@]12CC[C@@H]3c4ccc(O)cc4CC[C@H]3[C@@H]1C[C@@H](F)[C@@H]2O [[18F]FES, 16α-[18F]fluoro-17β-estradiol]
